Reference: patent US8940722B2, “Compounds for modulation of orphan nuclear receptor RAR-related orphan receptor-gamma (RORγ, NR1F3) activity and for the treatment of chronic inflammatory and autoimmune disease” (Phenex Pharmaceuticals AG, priority 2010, dated 2015)
“And” between values parts separate entries of the source, which are not always exact repeats. Equal entries are not always repeated.

molecular target: T1, RORγ ligand binding domain (LBD) (Homo sapiens, UniProt P51449); assay: TR-FRET Activity Assay (RORγ-LBD / coactivator peptide interaction); format: biochemical; details: Table 2; read-out: RORγ activity in the TR-FRET Activity Assay (IC50 FRET), Group
T1 construct: made in house; host or cells: E. coli BL-21 (BL3), vector pDEST15
T1 sequence (P51449 269-508 limits assumed): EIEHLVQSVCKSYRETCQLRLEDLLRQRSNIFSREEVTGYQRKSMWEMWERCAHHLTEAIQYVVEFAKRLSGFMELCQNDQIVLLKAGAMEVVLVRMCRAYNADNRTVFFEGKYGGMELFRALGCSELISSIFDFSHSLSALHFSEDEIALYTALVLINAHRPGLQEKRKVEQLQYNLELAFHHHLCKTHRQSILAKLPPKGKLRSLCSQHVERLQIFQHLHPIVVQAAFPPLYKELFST
Description: This method measures the ability of putative ligands to modulate the interaction between the purified bacterial expressed RORγ ligand binding domain (LBD) and synthetic N-terminally biotinylated peptides which are derived from nuclear receptor coactivator proteins such as but not limited to SRC1 (NcoA1), SRC2 (NcoA2, TIF2), SRC3 (NcoA3), PGC1α, PGC1β, CBP, GRIP1, TRAP220, RIP140.
The ligand-binding domain (LBD) of RORγ was expressed as fusion protein with GST in […] cells using the vector pDEST15. Cells were lysed by lysozyme-treatment and sonication, and the fusion proteins purified over glutathione sepharose (Pharmacia) according to the manufacturers instructions. For screening of compounds for their influence on the RORγ-peptide interaction, the LANCE technology (Perkin Elmer) was applied. This method relies on the binding dependent energy transfer from a donor to an acceptor fluorophor attached to the binding partner of interest. For ease of handling and reduction of background from compound fluorescence LANCE technology makes use of generic fluorophore labels and time resolved detection assays were done in a final volume of 25 μL in a 384 well plate, in a Tris-based buffer system (20 mM Tris-HCl pH6.8; 60 mM KCl, 1 mM DTT; 5 mM MgCl2; 35 ng/μL BSA), containing 20-60 ng/well recombinantly expressed RORγ-LBD fused to GST, 200-600 nM N-terminally biotinylated peptide, 200 ng/well Streptavidin-xIAPC conjugate (Prozyme) and 6-10 ng/well Eu W1024—antiGST (Perkin Elmer). DMSO content of the samples was kept at 1%.
After generation of the Tris-based buffer system, the potentially RORγ modulating ligands were diluted. […] The LANCE signal was detected by a Perkin Elmer EnVision™ Multilabel Counter. The results were visualized by plotting the ratio between the emitted light at 665 nm and 615 nm. […] Ligands that promote the complex formation induce a concentration-dependent increase in time-resolved fluorescent signal.
To assess the antagonistic potential of the compounds, IC50 values were determined using a Ligand Sensing Assay based on Time-resolved Fluorescence Energy Transfer (TR-FRET) as described above. The normalised TR-FRET assay values, using the following equation: 1000*665 nm measurement value/615 nm measurement value, were transferred to the program GraphPad Prism to generate graphs and dose response curves using the following equation: • Equation: Sigmoidal dose-response (variable slope) Y=Bottom+(Top−Bottom)/(1+10^((Log EC50−X)*HillSlope))
This is identical to the “four parameter logistic equation”. The IC50 values are calculated using this equation.

COC[C@@H]1COCc2ccccc2CN1S(=O)(=O)c1cccc2cccnc12 [Preparative Example 16, (R)-4-(Methoxymethyl)-5-(quinolin-8-ylsulfonyl)-3,4,5,6-tetrahydro-1H-benzo[f][1,4]oxazocine] and COCCOC[C@@H]1COCc2ccccc2CN1S(=O)(=O)c1cccc2cccnc12 [16/2] cannot be ordered by IC50: over 2000 nM for the first, over 2000 nM for the second.

First: CC(C)(C)OC[C@@H]1COCc2ncccc2CN1S(=O)(=O)c1ccccc1OC(F)(F)F [6/2]
Second: CCOc1ccc(F)cc1S(=O)(=O)N1Cc2cccnc2COC[C@H]1COC(C)(C)C [6/3]
The IC50 of the first is lower: under 500 nM for the first, 500 to 2000 nM for the second. The first is the more potent here.

O=S(=O)(c1c(Cl)ccc2nonc12)N1Cc2ccccc2COCC1Cc1ccccc1 (stereo not drawn) [1/11] and O=S(=O)(c1c(Cl)cccc1Cl)N1Cc2ccccc2COCC1Cc1ccccc1 (stereo not drawn) [1/23] fall in the same range of IC50: 500 to 2000 nM for the first, 500 to 2000 nM for the second.

Compared with COC(=O)c1ccccc1S(=O)(=O)N1Cc2ccccc2COCC1Cc1ccccc1 (stereo not drawn) [1/39], O=S(=O)(c1ccccc1F)N1Cc2ccccc2COCC1Cc1ccccc1 (stereo not drawn) [1/14] is lower in IC50: 500 to 2000 nM for the first, under 500 nM for the second. The second is the more potent here.

COc1ccccc1S(=O)(=O)N1Cc2cc(F)ccc2COCC1Cc1ccccc1 (stereo not drawn) [1/33] and COc1ccc2c(c1)CN(S(=O)(=O)c1ccccc1OC)C(Cc1ccccc1)COC2 (stereo not drawn) [1/34] cannot be ordered by IC50: over 2000 nM for the first, over 2000 nM for the second.

First: C=CC[C@@H]1COCc2ccccc2CN1S(=O)(=O)c1cccc2cccnc12 [Preparative Example 18, (R)-4-Allyl-5-(quinolin-8-ylsulfonyl)-3,4,5,6-tetrahydro-1H-benzo[f][1,4]oxazocine]
Second: CCC(C)CC1COCc2ccccc2CN1S(=O)(=O)c1cccc2cccnc12 (stereo not drawn) [1/43]
The IC50 of the first is higher: 500 to 2000 nM for the first, under 500 nM for the second. The second is the more potent here.

Compared with COc1ccccc1S(=O)(=O)N1Cc2ccccc2CS(=O)(=O)CC1Cc1ccccc1 (stereo not drawn) [compound 29], COc1ccccc1S(=O)(=O)N1Cc2ccccc2CN(C)CC1Cc1ccccc1 (stereo not drawn) [Preparative Example 2, 3-Benzyl-2-(2-methoxyphenylsulfonyl)-5-methyl-1,2,3,4,5,6-hexahydrobenzo-[f][1,4]-diazocine] is lower in IC50: over 2000 nM for the first, 500 to 2000 nM for the second.

Compared with CC(C)(O)C[C@@H]1COCc2ccccc2CN1S(=O)(=O)c1cccc2cccnc12 [Preparative Example 22, (R)-2-Methyl-1-(5-(quinolin-8-ylsulfonyl)-3,4,5,6-tetrahydro-1H-benzo[f][1,4]oxazocin-4-yl)propan-2-ol], CC(C)(C)OC[C@@H]1COCc2ccccc2CN1S(=O)(=O)c1cccc2cccnc12 [Preparative Example 14, (S)-4-(tert-Butoxymethyl)-5-(quinolin-8-ylsulfonyl)-3,4,5,6-tetrahydro-1H-benzo[f][1,4]oxazocine] is lower in IC50: over 2000 nM for the first, under 500 nM for the second. The second is the more potent here.

COc1ccccc1S(=O)(=O)N1Cc2ccccc2COCC1Cc1cccc(C#N)c1 (stereo not drawn) [5/3] and COc1ccccc1S(=O)(=O)N1Cc2ccccc2COCC1Cc1cccc(Br)c1 (stereo not drawn) [3/2] cannot be ordered by IC50: under 500 nM for the first, under 500 nM for the second.

Going from O=S(=O)(c1cc(Cl)sc1Cl)N1Cc2ccccc2COCC1Cc1ccccc1 (stereo not drawn) [1/27] to O=S(=O)(c1cc(Cl)ccc1F)N1Cc2ccccc2COCC1Cc1ccccc1 (stereo not drawn) [1/18], the IC50 falls from over 2000 nM to under 500 nM. The second is the more potent here.

CN(C)C(=O)C[C@@H]1COCc2ccccc2CN1S(=O)(=O)c1cccc2cccnc12 [Preparative Example 26, (R)—N,N-Dimethyl-2-(5-(quinolin-8-ylsulfonyl)-3,4,5,6-tetrahydro-1H-benzo[f][1,4]oxazocin-4-yl)acetamide] and Cc1nnc(C[C@@H]2COCc3ccccc3CN2S(=O)(=O)c2cccc3cccnc23)o1 [Preparative Example 27, (R)-4-((5-Methyl-1,3,4-oxadiazol-2-yl)methyl)-5-(quinolin-8-ylsulfonyl)-3,4,5,6-tetrahydro-1H-benzo[f][1,4]oxazocine] cannot be ordered by IC50: over 2000 nM for the first, over 2000 nM for the second.

First: O=S(=O)(c1ccccc1OC(F)(F)F)N1Cc2nnc(C(F)(F)F)n2CCC[C@H]1Cc1ccccc1 [Preparative Example 31, (S)-8-Benzyl-9-((2-(trifluoromethoxy)phenyl)sulfonyl)-3-(trifluoromethyl)-5,6,7,8,9,10-hexahydro-[1,2,4]triazolo[4,3-a][1,4]diazocine]
Second: O=S(=O)(c1ccccc1OC(F)(F)F)N1Cc2nncn2CCC[C@H]1Cc1ccccc1 [31/1]
The IC50 of the first is higher: over 2000 nM for the first, 500 to 2000 nM for the second. The second is the more potent here.

Compared with COc1ccccc1S(=O)(=O)N1Cc2cccc(OC)c2COCC1Cc1ccccc1 (stereo not drawn) [1/36], COc1ccccc1S(=O)(=O)N1Cc2c(cccc2OC)COCC1Cc1ccccc1 (stereo not drawn) [5/1] is higher in IC50: 500 to 2000 nM for the first, over 2000 nM for the second.

First: O=S(=O)(c1cccc2cccnc12)N1Cc2ccccc2COC[C@H]1CN1CCCCC1 [17/2]
Second: O=S(=O)(c1cccc2cccnc12)N1Cc2ccccc2COC[C@H]1CN1CCOCC1 [17/4]
The IC50 of the first is higher: over 2000 nM for the first, under 500 nM for the second. The second is the more potent here.

First: COc1ccccc1S(=O)(=O)N1Cc2ccccc2COCC1Cc1ccc(F)cc1 (stereo not drawn) [1/37]
Second: COc1ccccc1S(=O)(=O)N1Cc2ccccc2COCC1Cc1ccc(Br)cc1 (stereo not drawn) [compound 3]
The IC50 of the first is lower: 500 to 2000 nM for the first, over 2000 nM for the second.

Compared with O=S(=O)(c1cccc2cccnc12)N1Cc2ccccc2COC[C@H]1Cn1cccn1 [Preparative Example 17, (R)-4-((1H-Pyrazol-1-yl)methyl)-5-(quinolin-8-ylsulfonyl)-3,4,5,6-tetrahydro-1H-benzo[f][1,4]oxazocine], O=S(=O)(c1cccc2cccnc12)N1Cc2ccccc2COC[C@H]1Cc1cccnc1 [compound 7] is lower in IC50: over 2000 nM for the first, 500 to 2000 nM for the second. The second is the more potent here.

First: O=S(=O)(c1ccccc1C(F)(F)F)N1Cc2ccccc2COCC1Cc1ccccc1 (stereo not drawn) [1/25]
Second: O=S(=O)(c1cc(C(F)(F)F)ccc1F)N1Cc2ccccc2COCC1Cc1ccccc1 (stereo not drawn) [1/24]
The IC50 of the first is higher: 500 to 2000 nM for the first, under 500 nM for the second.

First: O=S(=O)(c1c(F)cccc1F)N1Cc2ccccc2COCC1Cc1ccccc1 (stereo not drawn) [1/22]
Second: COc1cccc(S(=O)(=O)N2Cc3ccccc3COCC2Cc2ccccc2)c1 (stereo not drawn) [1/28]
The IC50 of the first is lower: under 500 nM for the first, 500 to 2000 nM for the second. The first is the more potent here.

First: COc1ccccc1S(=O)(=O)N1Cc2ccccc2COCC1Cc1ccc(C#N)cc1 (stereo not drawn) [5/4]
Second: COc1ccc(Cl)cc1S(=O)(=O)N1Cc2ccccc2COCC1Cc1ccccc1 (stereo not drawn) [1/6]
The IC50 of the first is higher: over 2000 nM for the first, under 500 nM for the second.

First: CC(C)(C)OC[C@@H]1COCc2ncccc2CN1S(=O)(=O)c1cccc2cccnc12 [6/1]
Second: CC(C)(C)OC[C@@H]1COCc2ncccc2CN1S(=O)(=O)c1cccc2c1OCC2 [6/5]
The IC50 of the first is higher: over 2000 nM for the first, 500 to 2000 nM for the second. The second is the more potent here.

COc1cccc(CC2COCc3ccccc3CN2S(=O)(=O)c2cccc3cccnc23)c1 (stereo not drawn) [1/38] and COc1cccc2c1COCC(Cc1ccccc1)N(S(=O)(=O)c1cccc3cccnc13)C2 (stereo not drawn) [1/40] cannot be ordered by IC50: under 500 nM for the first, under 500 nM for the second.

Cn1cnc(S(=O)(=O)N2Cc3ccccc3COCC2Cc2ccccc2)c1Cl (stereo not drawn) [1/31] and Cc1nn(C)c(Cl)c1S(=O)(=O)N1Cc2ccccc2COCC1Cc1ccccc1 (stereo not drawn) [1/32] cannot be ordered by IC50: over 2000 nM for the first, over 2000 nM for the second.

COc1cccc(-c2cccc(CC3COCc4ccccc4CN3S(=O)(=O)c3ccccc3OC)c2)n1 (stereo not drawn) [5/6] and COc1ccc(S(=O)(=O)N2Cc3ccccc3COCC2Cc2ccccc2)cc1 (stereo not drawn) [1/29] cannot be ordered by IC50: over 2000 nM for the first, over 2000 nM for the second.

O=S(=O)(c1cc(F)ccc1OCCN1CCOCC1)N1Cc2ccccc2COCC1Cc1ccccc1 (stereo not drawn) [Preparative Example 11] and O=S(=O)(c1cc(F)ccc1N1CCOCC1)N1Cc2ccccc2COCC1Cc1ccccc1 (stereo not drawn) [compound 12] cannot be ordered by IC50: over 2000 nM for the first, over 2000 nM for the second.

Compared with O=S(=O)(c1cccc2cccnc12)N1Cc2ccccc2CCCC1Cc1ccccc1 (stereo not drawn) [compound 30], CN1Cc2ccccc2CN(S(=O)(=O)c2cccc3cccnc23)[C@H](Cc2ccccc2)C1=O [compound 9] is higher in IC50: 500 to 2000 nM for the first, over 2000 nM for the second. The first is the more potent here.

Compared with O=S(=O)(c1cccc2cccnc12)N1Cc2cccc(O)c2COCC1Cc1ccccc1 (stereo not drawn) [compound 13], O=S(=O)(c1cccc2cccnc12)N1Cc2cccnc2COC[C@H]1Cc1ccccc1 [compound 6] is lower in IC50: over 2000 nM for the first, under 500 nM for the second.

First: CC(C)(C)OC[C@@H]1COCc2ncccc2CN1S(=O)(=O)c1c(F)cccc1F [6/4]
Second: COc1ccccc1S(=O)(=O)N1Cc2ccccc2COCC1CC(C)C (stereo not drawn) [1/41]
The IC50 of the first is higher: over 2000 nM for the first, 500 to 2000 nM for the second.

First: COc1ccccc1S(=O)(=O)N1Cc2ccccc2OCCC1Cc1ccccc1 (stereo not drawn) [compound 4]
Second: O=S(=O)(c1cccc2nsnc12)N1Cc2ccccc2COCC1Cc1ccccc1 (stereo not drawn) [1/12]
The IC50 of the first is higher: 500 to 2000 nM for the first, under 500 nM for the second. The second is the more potent here.

COc1ccccc1S(=O)(=O)N1Cc2ccccc2COC[C@H]1Cc1ccccc1 [1/2] was tested, and the IC50 was < 500 nM and > 2000 nM.
